#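 GI50 is the concentration that inhibits growth by half. TGI: concentration producing complete growth inhibition.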
# Columns and labels:
# Test in all cases: inhibition of tumour cell growth, NCI panel, 384-well format
# OVCAR-5 ovarian = system: OVCAR-5 ovarian
# SK-MEL-28 melanoma = system: SK-MEL-28 melanoma
# RPMI-8226 leukemia = system: RPMI-8226 leukemia
# MDA-MB-468 breast = system: MDA-MB-468 breast
# MDA-MB-435 melanoma = system: MDA-MB-435 melanoma
# TK-10 renal = system: TK-10 renal
# NCI-H460 NSCLC = system: NCI-H460 NSCLC
# MCF7 breast = system: MCF7 breast
# CCRF-CEM leukemia = system: CCRF-CEM leukemia
# EKVX NSCLC = system: EKVX NSCLC
# UO-31 renal = system: UO-31 renal
# HS 578T breast = system: HS 578T breast
# IGROV1 ovarian = system: IGROV1 ovarian
# T-47D breast = system: T-47D breast
# HOP-92 NSCLC = system: HOP-92 NSCLC
# OVCAR-3 ovarian = system: OVCAR-3 ovarian
# NCI-H522 lung = system: NCI-H522 lung
# ACHN renal = system: ACHN renal
# SN12C renal = system: SN12C renal
# HL-60(TB) leukemia = system: HL-60(TB) leukemia
# UACC-62 melanoma = system: UACC-62 melanoma
# A549 NSCLC = system: A549 NSCLC
# SW-620 colon = system: SW-620 colon
# KM12 colon = system: KM12 colon
# SK-MEL-2 melanoma = system: SK-MEL-2 melanoma
# HCT-15 colon = system: HCT-15 colon
# U251 glioblastoma = system: U251 glioblastoma
# MDA-MB-231 breast = system: MDA-MB-231 breast
# OVCAR-4 ovarian = system: OVCAR-4 ovarian
# HT29 colon = system: HT29 colon
# DU-145 prostate = system: DU-145 prostate
# NCI-H23 lung = system: NCI-H23 lung
# MALME-3M melanoma = system: MALME-3M melanoma
# SNB-75 CNS = system: SNB-75 CNS
# SF-268 CNS = system: SF-268 CNS
# A498 renal = system: A498 renal
# MOLT-4 leukemia = system: MOLT-4 leukemia
# LOX IMVI melanoma = system: LOX IMVI melanoma
# SK-OV-3 ovarian = system: SK-OV-3 ovarian
# CAKI-1 renal = system: CAKI-1 renal
# 786-0 renal = system: 786-0 renal
# HOP-62 NSCLC = system: HOP-62 NSCLC
# UACC-257 melanoma = system: UACC-257 melanoma
# HCT-116 colon = system: HCT-116 colon
# SNB-19 CNS = system: SNB-19 CNS
# OVCAR-8 ovarian = system: OVCAR-8 ovarian
# K-562 leukemia = system: K-562 leukemia
# NCI/ADR-RES ovarian = system: NCI/ADR-RES ovarian
# NCI-H322M lung = system: NCI-H322M lung
# M14 melanoma = system: M14 melanoma
# SF-295 CNS = system: SF-295 CNS
# RXF 393 renal = system: RXF 393 renal
# SK-MEL-5 melanoma = system: SK-MEL-5 melanoma
# SF-539 CNS = system: SF-539 CNS
# COLO 205 colon = system: COLO 205 colon
# BT-549 breast = system: BT-549 breast
# PC-3 prostate = system: PC-3 prostate
# NCI-H226 lung = system: NCI-H226 lung
# HCC-2998 colon = system: HCC-2998 colon
compound,measurement,setting,value
NC(=O)c1cccc2c(N[C@H](CN3CCC3)c3ccc(Cl)c(C(F)(F)F)c3)ncnc12,GI50,OVCAR-5 ovarian,2790 nM
same,TGI,OVCAR-5 ovarian,11200 nM
same,GI50,SK-MEL-28 melanoma,1260 nM
same,TGI,SK-MEL-28 melanoma,2690 nM
same,GI50,RPMI-8226 leukemia,1200 nM
same,TGI,RPMI-8226 leukemia,2450 nM
same,GI50,MDA-MB-468 breast,256 nM
same,TGI,MDA-MB-468 breast,1250 nM
same,GI50,MDA-MB-435 melanoma,1320 nM
same,TGI,MDA-MB-435 melanoma,5510 nM
same,GI50,TK-10 renal,1250 nM
same,TGI,TK-10 renal,3180 nM
same,GI50,NCI-H460 NSCLC,366 nM
same,TGI,NCI-H460 NSCLC,2400 nM
same,GI50,MCF7 breast,362 nM
same,TGI,MCF7 breast,1860 nM
same,GI50,CCRF-CEM leukemia,410 nM
same,TGI,CCRF-CEM leukemia,1750 nM
same,GI50,EKVX NSCLC,1150 nM
same,TGI,EKVX NSCLC,5010 nM
same,GI50,UO-31 renal,1580 nM
same,TGI,UO-31 renal,9030 nM
same,GI50,HS 578T breast,750 nM
same,TGI,HS 578T breast,2350 nM
same,GI50,IGROV1 ovarian,247 nM
same,TGI,IGROV1 ovarian,1880 nM
same,GI50,T-47D breast,199 nM
same,TGI,T-47D breast,1390 nM
same,GI50,HOP-92 NSCLC,1320 nM
same,TGI,HOP-92 NSCLC,3350 nM
same,GI50,OVCAR-3 ovarian,2720 nM
same,TGI,OVCAR-3 ovarian,11200 nM
same,GI50,NCI-H522 lung,1190 nM
same,TGI,NCI-H522 lung,5700 nM
same,GI50,ACHN renal,1950 nM
same,TGI,ACHN renal,12200 nM
same,GI50,SN12C renal,2100 nM
same,TGI,SN12C renal,12600 nM
same,GI50,HL-60(TB) leukemia,1560 nM
same,TGI,HL-60(TB) leukemia,2910 nM
same,GI50,UACC-62 melanoma,980 nM
same,TGI,UACC-62 melanoma,2210 nM
same,GI50,A549 NSCLC,1510 nM
same,TGI,A549 NSCLC,6390 nM
same,GI50,SW-620 colon,1860 nM
same,TGI,SW-620 colon,7730 nM
same,GI50,KM12 colon,920 nM
same,TGI,KM12 colon,6880 nM
same,GI50,SK-MEL-2 melanoma,1310 nM
same,TGI,SK-MEL-2 melanoma,2660 nM
same,GI50,HCT-15 colon,1190 nM
same,TGI,HCT-15 colon,8430 nM
same,GI50,U251 glioblastoma,1890 nM
same,TGI,U251 glioblastoma,10400 nM
same,GI50,MDA-MB-231 breast,2720 nM
same,TGI,MDA-MB-231 breast,13700 nM
same,GI50,OVCAR-4 ovarian,3020 nM
same,TGI,OVCAR-4 ovarian,12000 nM
same,GI50,HT29 colon,1400 nM
same,TGI,HT29 colon,2980 nM
same,GI50,DU-145 prostate,2630 nM
same,TGI,DU-145 prostate,13800 nM
same,GI50,NCI-H23 lung,1730 nM
same,TGI,NCI-H23 lung,6240 nM
same,GI50,MALME-3M melanoma,457 nM
same,TGI,MALME-3M melanoma,1710 nM
same,GI50,SNB-75 CNS,258 nM
same,TGI,SNB-75 CNS,1570 nM
same,GI50,SF-268 CNS,1480 nM
same,TGI,SF-268 CNS,4200 nM
same,GI50,A498 renal,138 nM
same,TGI,A498 renal,1520 nM
same,GI50,MOLT-4 leukemia,88.2 nM
same,TGI,MOLT-4 leukemia,718 nM
same,GI50,LOX IMVI melanoma,2180 nM
same,TGI,LOX IMVI melanoma,7000 nM
same,GI50,SK-OV-3 ovarian,430 nM
same,TGI,SK-OV-3 ovarian,2910 nM
same,GI50,CAKI-1 renal,1290 nM
same,TGI,CAKI-1 renal,3650 nM
same,GI50,786-0 renal,482 nM
same,TGI,786-0 renal,1940 nM
same,GI50,HOP-62 NSCLC,3320 nM
same,TGI,HOP-62 NSCLC,12000 nM
same,GI50,UACC-257 melanoma,1020 nM
same,TGI,UACC-257 melanoma,2190 nM
same,GI50,HCT-116 colon,1800 nM
same,TGI,HCT-116 colon,5390 nM
same,GI50,SNB-19 CNS,1730 nM
same,TGI,SNB-19 CNS,5200 nM
same,GI50,OVCAR-8 ovarian,2560 nM
same,TGI,OVCAR-8 ovarian,11200 nM
same,GI50,K-562 leukemia,1640 nM
same,TGI,K-562 leukemia,3200 nM
same,GI50,NCI/ADR-RES ovarian,2790 nM
same,TGI,NCI/ADR-RES ovarian,10300 nM
same,GI50,NCI-H322M lung,3100 nM
same,TGI,NCI-H322M lung,14400 nM
same,GI50,M14 melanoma,1210 nM
same,TGI,M14 melanoma,2480 nM
same,GI50,SF-295 CNS,1020 nM
same,TGI,SF-295 CNS,3220 nM
same,GI50,RXF 393 renal,231 nM
same,TGI,RXF 393 renal,1340 nM
same,GI50,SK-MEL-5 melanoma,1380 nM
same,TGI,SK-MEL-5 melanoma,2690 nM
same,GI50,SF-539 CNS,195 nM
same,TGI,SF-539 CNS,1630 nM
same,GI50,COLO 205 colon,951 nM
same,TGI,COLO 205 colon,2160 nM
same,GI50,BT-549 breast,316 nM
same,TGI,BT-549 breast,1520 nM
same,GI50,PC-3 prostate,345 nM
same,TGI,PC-3 prostate,3850 nM
same,GI50,NCI-H226 lung,2350 nM
same,TGI,NCI-H226 lung,8740 nM
same,GI50,HCC-2998 colon,1040 nM
same,TGI,HCC-2998 colon,2230 nM
